In patent EP3483233A1, “LUBRICANT BASE OIL COMPOSITIONS OF MONO-UNSATURATED DIBASIC ACID ESTERS WITH BRANCHED ALCOHOLS” (ARKEMA FRANCE, priority 2017, dated 2019):

Key:
Assay type in all cases: physicochemical
[1] = Kinematic viscosity with capillary Cannon-Fenske viscometers; Viscosity Index calculated per ASTM D2270
Protocol: Kinematic viscosities at 40°C and 100°C were measured using capillary Cannon-Fenske viscometers per ASTM […]. Viscosity Index (the value, describing the rate of thinning with increasing temperature) was calculated per ASTM D2270.

[2] = Solubility of lubricant additives in the basestocks
Protocol: Several typical lubricant additives have been tested for solubility in α-ω dibasic esters of 2-ethyl hexanol 26U18 and 26S12 as well as commercial basestock 350N. The additives were mixed in at temperatures of 50°C or lower and held for longer than a week at room temperature. Table 7. Solubility of lubricant additives, dissolved in α-ω dibasic esters and commercial basestocks
The additives were selected to represent different chemical categories: soaps, heterocycles, phosphorous derivatives, polymers, etc. Most of these additives are designed to be dissolved in paraffinic mineral oils and synthetic lubricants with some heating. It is often thought that esters are better solvents than mineral oils or synthetic hydrocarbons like poly α-olefins. Therefore, the tested concentrations were much higher than additive proportions for hydraulic fluids, as recommended by the additive manufacturers.

[3] = Pour point and cloud point, cooling regime of ASTM D97
Protocol: Pour points and cloud points were determined using the same thermal cooling regime, as instructed by ASTM D97. The sample sizes were 5 to 15 mL during the measurements.
Cloud points were determined during the same run by visual inspection of the sample appearance at low temperature. The samples were removed from the freezer every 3°C for visual inspection and, if cloudy, meniscus movement with inversion. The pour point resembled the last measurement, at which the meniscus boundary was still moving within 5 seconds of horizontal inversion. All samples were tested in duplicate.
In engine oils and hydraulic fluids, low temperature fluidity is primarily determined by pour points [ASTM D97]. Generally, pour points below -30°C are considered sufficient. Some polymer additives, e.g. "Pour Point Depressants" (PPD), are able to improve low temperature fluidity. […] Therefore, initially pour points and cloud points [ASTM D2500 "Standard Test Method for Cloud Point of Petroleum Products and Liquid Fuels"] of α-ω dibasic esters were evaluated and shown in Table 4.

[4] = Thin film test, oxidative stability (time to insoluble residues and to solidification); settings: 500 µm thick films at 120°C
Description: (§1) The exact procedure, used here, has been described in detail by Stoncius, A. et al. in "Volatiles from Thin Film Degradation of Bio-based, Synthetic and Mineral Basestocks", published in Industrial Lubrication & Tribology, 2013, 65 (3) 209-215, 2013, Emerald Group Publishing Edition or by Brazinskiene, D. et al. in "Ester Basestock Vaporisation from Thin Oil Films", published in Lubrication Science, DOI: 10.1002/ls.1372, pp 1-17, 2017, Wiley Edition.
(§2) Briefly, an oil film of 500 µm thickness was coated on steel coupon and heated at given temperature for specific duration in a forced-draft oven. Afterwards, the volatile losses and insoluble residues were measured gravimetrically.
Therefore, thin films of commercial basestocks and α-ω dibasic esters were compared by exposing their thin films to 120°C as described by Stoncius, A. et al. in "Volatiles from Thin Film Degradation of Bio-based, Synthetic and Mineral Basestocks" published in Industrial Lubrication & Tribology, 2013, 65 (3), 209-215, Emerald Group Publishing Edition or by Brazinskiene, D. et al. in "Ester Basestock Vaporisation from Thin Oil Films" published in Lubrication Science, DOI: 10.1002/ls.1372, pp 1-17, 2017, Wiley Edition.
The thin-film method determines how resistant oil is against formation of insoluble residues during oxidation. Degradation durations until initial formation of solid residues and complete solidification directly relate to oxidative stability.

[5] = Thin film test, volatile losses (500 µm oil film on steel coupon, forced-draft oven, gravimetric); settings: 500 µm thick films at 120°C
Description: as §1, §2
As discussed in the prior-art review, volatility can be successfully evaluated in a thin film test as described by Stoncius, A. et al. in "Volatiles from Thin Film Degradation of Bio-based, Synthetic and Mineral Basestocks" published in Industrial Lubrication & Tribology, 2013, 65 (3) 209-215, Emerald Group Publishing Edition or by Brazinskiene, D. et al. in "Ester Basestock Vaporisation from Thin Oil Films" published in Lubrication Science, DOI: 10.1002/ls.1372, pp 1-17, 2017, Wiley Edition. This thin-film method is much better suited for hydraulic fluid applications than NOACK or other tests, which employ 250°C or similar temperatures, related to engine oil applications. Also, the above method accounts for longer term decomposition reactions due to exposure to metal surfaces and oxidation, which is prevalent in hydraulic applications. Therefore, using the thin-film method short-term vapor losses were measured after 16 hrs and decomposition trends were compared after 36 hrs of testing. Heating temperature of 120°C was selected to compare thin films of α,ω dibasic esters with commercial basestocks. Table 5. Volatile emissions, % w/w from 500 µm thick films of α-ω dibasic esters and commercial basestocks at 120°C

- Viscosity Index ([1]; calculated per ASTM D2270 from viscosities at 40°C and 100°C): 197
- Viscosity, mm^2/s at 40°C ([1]; kinematic viscosity at 40°C): 22.74 mm^2/s
- Viscosity, mm^2/s at 100°C ([1]; kinematic viscosity at 100°C): 5.53 mm^2/s
- Solubility of 1% w/w Vanlube 7723 ([2]; Alkyl dithiocarbamate, mixed in at 50°C or lower, held longer than a week at room temperature): soluble
- Solubility of 1% w/w Irgalube ML605A ([2]; Amine and phosphate derivatives, mixed in at 50°C or lower, held longer than a week at room temperature): soluble
- Solubility of 1% w/w Vanlube 7611 M ([2]; Phosphoro dithioate, mixed in at 50°C or lower, held longer than a week at room temperature): soluble
- Solubility of 5% w/w Viscoplex 10-310 ([2]; Poly alkyl methacrylate, mixed in at 50°C or lower, held longer than a week at room temperature): soluble
- Solubility of 2% w/w Vanlube RI- A ([2]; Soap and ester derivatives, mixed in at 50°C or lower, held longer than a week at room temperature): soluble
- Solubility of 1% w/w Cobratec TT-100 ([2]; Tolyl triazole, mixed in at 50°C or lower, held longer than a week at room temperature): soluble
- Initial solution appearance ([2]; all tested additives blended in, unchanged after 1 week at room temperature): bright and clear
- Pour point, °C [3]: -57 °C
- Cloud point, °C ([3]; visual inspection during the same run): -36 °C
- Full solidification observed [4]: 320 h
- Initial residues observed [4]: 248 h
- Vapor loss at solidification ([4]; at the duration of full film solidification): 57% w/w
- Volatile emissions, 16 hrs ([5]; 16 hrs): 5.5 % w/w
- Volatile emissions, 36 hrs ([5]; 36 hrs): 10.7 % w/w
Substance: 1,18-di(2-ethylhexyl) octadec-9-enedioate [26U18]
